# Experimental data published in patent US9889147B2 (CELLACT PHARMA GMBH, priority 2010, dated 2018).
# Key:
# [1] = Cardiovascular telemetry study; assay type: in vivo, cynomolgus monkeys; conditions: conscious monkeys, single intravenous 30-minute infusion
# Source text: The objective of this study was to evaluate the potential modifications of cardiovascular function and cardiac electrophysiology by CAP7.1. The intravenous route was selected, as it is the intended mode of administration in human therapeutic use.
# A total of four cynomolgus monkeys (two males and two females) were implanted with telemetric devices and allocated to a single group. They received a single dose of the vehicle (Cremophor/ethanol/NaCl) or CAP7.1, by intravenous 30-minute infusion. Cardiovascular parameters were monitored up to 24 hours following single infusion. The cardiovascular parameters evaluated in this study included heart rate, diastolic, systolic and mean arterial pressure, and duration of the PQ, QRS and QT intervals.
# [2] = Time course of apoptosis induction; assay type: cell-based
# Half life in primates = assay type: in vivo
# CES1 = target: T1, CES1 (Homo sapiens, UniProt P23141); assay: Conversion of CAP7.1 to etoposide by CES1 (HPLC); assay type: in vitro ADME; conditions: 5 μM CAP7.1, sodium phosphate pH 7.4, 37° C.
# T1 sequence (P23141 18-567): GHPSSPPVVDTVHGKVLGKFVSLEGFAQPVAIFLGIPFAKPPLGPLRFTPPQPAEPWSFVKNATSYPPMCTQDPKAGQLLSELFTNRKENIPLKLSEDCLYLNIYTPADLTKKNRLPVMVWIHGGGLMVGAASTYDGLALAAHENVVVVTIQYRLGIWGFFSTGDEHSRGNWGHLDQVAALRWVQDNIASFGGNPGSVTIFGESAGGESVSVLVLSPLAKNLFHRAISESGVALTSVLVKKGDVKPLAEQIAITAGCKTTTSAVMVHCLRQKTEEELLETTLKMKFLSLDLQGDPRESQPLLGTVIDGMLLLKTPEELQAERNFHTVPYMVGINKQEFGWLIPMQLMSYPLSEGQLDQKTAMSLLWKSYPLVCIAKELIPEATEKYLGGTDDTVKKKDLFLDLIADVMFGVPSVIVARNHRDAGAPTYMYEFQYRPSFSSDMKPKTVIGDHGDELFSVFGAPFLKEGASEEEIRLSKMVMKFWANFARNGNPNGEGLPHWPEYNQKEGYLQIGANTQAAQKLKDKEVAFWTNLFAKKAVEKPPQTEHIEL
# Experimental: (§1) 5 μM CAP7.1 was pre-incubated for 3 min in 999 μl 0.1 mol/l) sodium phosphate (NaH2PO4, Roth, Karlsruhe, Germany) pH 7.4 at 37° C. After that, CES1, CES2 and CES3, respectively, were added. Controls were incubated with 10% foetal calf serum (FCS, positive control) or in buffer (negative control). At different time points, aliquots were subjected to HPLC in order to analyse the formed products.
# topoisomerase II α = assay: Topoisomerase II alpha mRNA expression in U937 cells (PCR); assay type: cell-based; conditions: 24 h
# Experimental: (§2) One of the controls involved the treatment of the cells with 0.05% (1 μl) DMSO. Untreated cells are also shown as a control.
# (§3) After an incubation time of 24 h, expression was analysed by determining mRNA levels by real-time PCR. In the respective lanes of FIG. 2, the bands for topoisomerase II α (322 bp), topoisomerase II β (304 bp) and the GAPDH control (358 bp) are shown. In the H2O control lane, showing the results of the H2O control sample, no bands were observed.
# Half life in mice = conditions: mouse, in vivo; mice with high levels of carboxylesterases
# U937 cells = assay: Cell cycle analysis in multidrug-resistant U937 cells (propidium iodide); assay type: cell-based; conditions: 18 h, 24 h and 48 h, CAP7.1, etoposide 10^−4 mol/l
# Experimental: The cells were incubated for 48 h. After 18 h, 24 h and 48 h of incubation, respectively, cell cycle analysis was performed as follows:
# Cells were washed once with CellWash, fixed with fridge-cold 70% Ethanol for 30 min at 4° C. and washed three times. RNA was digested with RNAse A (100 μg/ml in PBS) for 10 min at room temperature. Cells were washed once with CellWash and stained with propidium iodide (50 μg/ml in PBS) for 5 min at room temperature in the dark. Cells were analyzed immediately by flow cytometry using a FACScanto II apparatus.
# HT-29 cells = assay: Cytotoxicity on HT-29 cells (XTT); assay type: cell-based; conditions: cell viability (XTT)
# Experimental: HT-29 cells, which are not multidrug-resistant, were grown in DMEM, 10% foetal calf serum, 2 mM glutamine and […] Pen/Strep medium and then washed.
# Cells were harvested, counted, and inoculated at the appropriate concentration of 10^4 cells/well (100 μl volume) into 96-well microtiter plates. After 24 h, the drugs were applied to triplicate culture wells, and cultures were incubated for given times at 37° C. XTT was prepared at 1 mg/ml in pre-warmed (37° C.) medium (RPMI 1640) without serum. PMS was prepared at 5 mmol/l (1.53 mg/ml) in PBS. Fresh XTT and PMS were mixed together at appropriate concentrations. For a 25 μmol/l XTT-PMS solution, 25 μl of the 5 mmol/l PMS solution were added per 5 ml of XTT (1 mg/ml). 50 μl of this mixture were added to each well on given time points after cell inoculation. After incubation at 37° C., the plates were mixed on a mechanical plate shaker, and absorbance was measured with an ELISA Reader to determine cell viability.
# [3] = Stability in sodium phosphate buffer (negative control); assay type: physicochemical; conditions: sodium phosphate pH 7.4, 37° C.
# Experimental: as §1
# Half life in humans = conditions: human, in vivo
# Animal toxicity profile = conditions: animals
# advanced neuroblastoma = assay: Combination therapy with carboplatin in children with advanced neuroblastoma; assay type: in vivo, human
# Experimental: (§4) CAP7.1 was administered with carboplatin to three children with heavily pre-treated advanced neuroblastoma.
# (§5) Cycles were repeated every 21 days and a total of 4 cycles were administered in each patient. Toxicity was mainly haematological, grade 1-2 at 200 mg/m^2 and increased to grade 3-4 in the rest of the cycles, but cycle delay due to toxicity was not necessary.
# [4] = as above; assay type: in vivo, human; conditions: human; plasma, one of the children treated
# Experimental: as §4, §5
# P-glycoprotein = P-glycoprotein (Homo sapiens, UniProt P08183); assay: P-glycoprotein substrate behaviour; assay type: cell-based
# P-glycoprotein, sequence (P08183 whole entry): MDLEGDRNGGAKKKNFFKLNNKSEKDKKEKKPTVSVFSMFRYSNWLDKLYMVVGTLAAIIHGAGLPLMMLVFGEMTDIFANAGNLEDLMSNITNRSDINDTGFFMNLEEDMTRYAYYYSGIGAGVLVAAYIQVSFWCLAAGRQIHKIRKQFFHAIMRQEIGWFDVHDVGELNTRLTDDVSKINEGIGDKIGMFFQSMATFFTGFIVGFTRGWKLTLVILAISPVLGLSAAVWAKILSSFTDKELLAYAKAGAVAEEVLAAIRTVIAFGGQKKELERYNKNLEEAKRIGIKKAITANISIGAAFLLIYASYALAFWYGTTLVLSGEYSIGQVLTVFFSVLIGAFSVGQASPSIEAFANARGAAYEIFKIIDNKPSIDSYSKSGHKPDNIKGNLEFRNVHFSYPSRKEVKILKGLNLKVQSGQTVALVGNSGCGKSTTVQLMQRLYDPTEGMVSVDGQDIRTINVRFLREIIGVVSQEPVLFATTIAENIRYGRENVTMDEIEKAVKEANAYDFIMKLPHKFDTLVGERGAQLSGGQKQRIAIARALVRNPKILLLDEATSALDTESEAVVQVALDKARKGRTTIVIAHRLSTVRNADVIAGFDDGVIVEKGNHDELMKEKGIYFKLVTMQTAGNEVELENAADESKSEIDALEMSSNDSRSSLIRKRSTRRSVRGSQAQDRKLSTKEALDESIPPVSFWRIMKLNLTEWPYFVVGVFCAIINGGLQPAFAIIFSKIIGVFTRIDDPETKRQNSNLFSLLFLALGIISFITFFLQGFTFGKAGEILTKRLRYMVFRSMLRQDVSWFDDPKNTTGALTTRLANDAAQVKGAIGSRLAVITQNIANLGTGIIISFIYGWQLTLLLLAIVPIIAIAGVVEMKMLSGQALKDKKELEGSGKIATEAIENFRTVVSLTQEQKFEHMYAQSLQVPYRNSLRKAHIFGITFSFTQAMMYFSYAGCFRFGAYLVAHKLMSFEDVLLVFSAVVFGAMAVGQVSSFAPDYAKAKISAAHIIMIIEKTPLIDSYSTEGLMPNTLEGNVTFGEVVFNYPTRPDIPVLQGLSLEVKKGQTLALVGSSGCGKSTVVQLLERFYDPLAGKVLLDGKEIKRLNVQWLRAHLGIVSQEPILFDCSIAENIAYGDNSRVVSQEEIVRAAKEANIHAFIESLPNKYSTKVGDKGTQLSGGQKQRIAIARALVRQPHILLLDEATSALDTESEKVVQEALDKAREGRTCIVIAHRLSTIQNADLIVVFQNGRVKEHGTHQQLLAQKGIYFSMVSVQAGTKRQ
# topoisomerase II β = assay: Topoisomerase II beta mRNA expression in U937 cells (PCR); assay type: cell-based; conditions: 10^4 mol/l, 24 h
# Experimental: as §2, §3
# CES3 = target: T2, CES3 (Homo sapiens, UniProt Q6UWW8); assay: Conversion of CAP7.1 to etoposide by CES3 (HPLC); assay type: in vitro ADME; conditions: 5 μM CAP7.1, sodium phosphate pH 7.4, 37° C.
# T2 sequence (Q6UWW8 27-571): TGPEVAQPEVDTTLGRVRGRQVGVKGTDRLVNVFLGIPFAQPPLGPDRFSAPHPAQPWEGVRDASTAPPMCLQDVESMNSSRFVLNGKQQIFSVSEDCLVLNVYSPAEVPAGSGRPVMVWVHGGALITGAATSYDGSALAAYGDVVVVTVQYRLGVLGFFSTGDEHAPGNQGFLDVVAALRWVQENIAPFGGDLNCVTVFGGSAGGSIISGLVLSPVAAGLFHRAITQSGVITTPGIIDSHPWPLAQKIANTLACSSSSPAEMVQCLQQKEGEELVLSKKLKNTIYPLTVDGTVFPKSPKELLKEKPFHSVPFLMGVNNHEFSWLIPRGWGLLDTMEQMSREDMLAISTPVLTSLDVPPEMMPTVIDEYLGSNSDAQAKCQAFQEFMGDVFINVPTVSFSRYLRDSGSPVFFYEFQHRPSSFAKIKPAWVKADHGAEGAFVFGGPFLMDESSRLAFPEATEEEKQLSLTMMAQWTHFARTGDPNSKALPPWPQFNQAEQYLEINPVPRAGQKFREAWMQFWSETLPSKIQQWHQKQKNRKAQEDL
# Experimental: as §1
# [5] = system: tumours that were metastatic and/or that reduced the function of at least one organ; assay: Phase I/IIa safety/efficacy study in patients with metastatic and/or organ-function-reducing tumours
# Experimental: Nine heavily pre-treated patients were recruited to a combined Phase I/IIa safety/efficacy study. The patients had tumours that were metastatic and/or that reduced the function of at least one organ.
# In all patients, the tumours were clinically assessed and the history of their disease was recorded. Tumour markers were determined.
# A cycle of treatment consisted of CAP7.1 administration by infusion on 5 consecutive days, followed by an intermittent period of 16 days in which no CAP7.1 was administered. […] The first cohort (patients 1-3, 8 cycles in total) received CAP7.1 at a daily dose of 45 mg/m^2, the second cohort (patients 4-6, 9 cycles in total) at a daily dose of 90 mg/m^2 and the third cohort (patients 7-9) at a daily dose of 150 mg/m^2.
# [6] = target: T3, MDR-1 gene product (P-glycoprotein) (Homo sapiens, UniProt P08183); assay: Functional MDR-1 assay with JC-1 in Kelly cells (flow cytometry); assay type: cell-based; conditions: for intracellular JC-1 signal versus DMSO control (MDR-1-mediated substrate efflux): Kelly cells, 10^−4 mol/l, 15 min
# T3 construct: endogenous in cells; host or cells: Kelly
# T3 sequence (P08183 whole entry): as the sequence (P08183 whole entry) above
# Experimental: By means of an assay using JC-1, MDR-1 activity was assessed in Kelly cells, which express MDR-1. JC-1 is a cationic staining dye which is taken up by living cells. JC-1 is recognized by the MDR-1 gene product (P-glycoprotein) and pumped to the outside of the cell (substrate efflux). Thus, MDR-1 activity is indicated by a reduction in intracellular JC-1 signal.
# Kelly cells grown in RPMI medium were washed and resuspended at a concentration of 10^6 cells/ml in solutions containing JC-1 in a final concentration of 50 nmol/l. […] The control contained 1 μl (0.05%) DMSO. Cells were analysed for JC-1 staining in a FACScanto II flow cytometer.
# tumour cells = conditions: cited from earlier work
# CES2 = target: T4, CES2 (Homo sapiens, UniProt O00748); assay: Conversion of CAP7.1 to etoposide by CES2 (HPLC); assay type: in vitro ADME; conditions: 5 μM CAP7.1, sodium phosphate pH 7.4, 37° C.
# T4 sequence (O00748 27-559): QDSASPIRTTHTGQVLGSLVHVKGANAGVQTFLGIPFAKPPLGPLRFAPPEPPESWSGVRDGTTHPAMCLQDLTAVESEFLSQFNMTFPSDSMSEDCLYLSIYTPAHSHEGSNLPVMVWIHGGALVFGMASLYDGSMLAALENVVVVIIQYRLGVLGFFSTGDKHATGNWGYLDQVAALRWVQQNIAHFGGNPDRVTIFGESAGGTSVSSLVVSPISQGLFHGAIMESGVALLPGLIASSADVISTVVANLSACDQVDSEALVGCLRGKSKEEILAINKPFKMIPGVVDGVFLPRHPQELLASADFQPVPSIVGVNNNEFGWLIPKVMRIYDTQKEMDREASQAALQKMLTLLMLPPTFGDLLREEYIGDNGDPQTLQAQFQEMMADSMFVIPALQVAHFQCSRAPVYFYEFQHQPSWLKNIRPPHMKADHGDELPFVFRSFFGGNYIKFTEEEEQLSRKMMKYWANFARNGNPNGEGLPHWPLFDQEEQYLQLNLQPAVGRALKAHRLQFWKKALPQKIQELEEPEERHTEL
# Experimental: as §1
# NSX2 tumour xenografts = assay: NSX2 tumour xenograft model; assay type: in vivo; conditions: mice bearing NSX2 tumour xenografts (MDR-mediated etoposide-resistant)
# Source text: The lack of cross-resistance to CAP7.1 of MDR-mediated etoposide-resistant cell lines in vitro was confirmed in vivo in mice bearing NSX2 tumour xenografts.
# [7] = mouse, in vivo
# [8] = Side effects in preclinical and clinical studies; assay type: in vivo
smiles,measurement,setting,value
COc1cc([C@@H]2c3cc4c(cc3C(OC3OC5COC(C)OC5C(O)C3O)C3COC(=O)[C@@H]32)OCO4)cc(OC)c1OC(=O)OCC(O)CO (some centres unmarked) [CAP7.1],arrhythmias,[1],No arrhythmias
same,modifications in the cardiac electrophysiological parameters,[1]; up to 24 hours,no relevant modifications
same,time after which apoptosis is complete,[2],120 h
same,half life compared with mice,Half life in primates,longer
same,cleavage of CAP7.1 to etoposide by CES1,CES1,efficiently cleaves
same,expression of topoisomerase II α (mRNA),topoisomerase II α,significant decrease
same,half-life,Half life in mice,< 5 min
same,fraction of cells in G2 phase with increasing incubation times,U937 cells,increase
same,IC50 value of CAP7.1 lower than IC50 value of etoposide,HT-29 cells,10 fold
same,stability in buffer (negative control),[3],stable
same,half-life,Half life in humans,15 to 30 min
same,main toxicity at sublethal dose,Animal toxicity profile,bone marrow suppression affecting predominantly neutrophils and red cells
same,weight loss,Animal toxicity profile,do not
same,tooth damage,Animal toxicity profile; high dose group,reversible tooth damage
same,haematological toxicity grade,advanced neuroblastoma; CAP7.1 200 mg/m^2 day 1 with carboplatin 150 mg/m^2 days 2-5,1-2 grade
same,haematological toxicity grade,"advanced neuroblastoma; rest of the cycles (CAP7.1 400, 600 and 800 mg/m^2) with carboplatin",3-4 grade
same,tumour response,"advanced neuroblastoma; two of the three patients, with carboplatin",evidences of tumour shrinkage
same,Cmax,[4],3700 ng/mL
same,half-life,[4],12 to 30 min
same,substrate for P-glycoprotein / efflux from cells,P-glycoprotein,not a substrate for P-glycoprotein
same,expression of topoisomerase II β (mRNA),topoisomerase II β,significant decrease
same,cleavage of CAP7.1 to etoposide by CES3,CES3,substantially no cleavage
same,tolerability of the therapy,"[5]; all nine patients, 45, 90 or 150 mg/m^2 daily on 5 consecutive days per cycle",tolerated the therapy well without major adverse reactions
same,clinical response after the second cycle of treatment,"[5]; patients 1, 3, 4, 6, 8 and 9 of nine",stagnation of the disease
same,total dose per cycle tolerated without toxicity,[5]; patients 1 to 6,450 mg/m^2
same,intracellular JC-1 signal versus DMSO control (MDR-1-mediated substrate efflux),[6],increased
same,"potency relative to etoposide, e.g. cytotoxicity on tumour cells",tumour cells,up to 1000 times
same,cleavage of CAP7.1 to etoposide by CES2,CES2,as efficiently as the positive control FCS
same,tumour growth compared to control,NSX2 tumour xenografts,clear inhibition of tumour growth
same,LD10,[7],360 mg/m^2
same,side effects compared with etoposide,[8],fewer side effects than etoposide
"COc1cc([C@@H]2c3cc4c(cc3[C@@H](O[C@@H]3O[C@@H]5CO[C@@H](C)O[C@H]5[C@H](O)[C@H]3O)[C@H]3COC(=O)[C@H]23)OCO4)cc(OC)c1O [etoposide, reference compound]",expression of topoisomerase II α (mRNA),topoisomerase II α,significant decrease
same,fraction of cells in G2 phase with increasing incubation times,U937 cells,reduction
same,weight loss,Animal toxicity profile,significant weight loss
same,substrate for P-glycoprotein / efflux from cells,P-glycoprotein,pumped out of the cells
same,expression of topoisomerase II β (mRNA),topoisomerase II β,significant decrease
same,intracellular JC-1 signal versus DMSO control (MDR-1-mediated substrate efflux),[6],identical
same,effect on the MDR-1 gene product P-glycoprotein,[6]; general statement,ineffective on P-glycoprotein
